{"source": "patent US20220257706A1", "about": "“EPIDERMAL GROWTH FACTOR RECEPTOR (EGFR) LIGANDS” (NANYANG TECHNOLOGICAL UNIVERSITY, priority 2019, published 2022)", "key": {"[1]": {"system": "HaCaT cells", "test": "EdU incorporation assay (DNA synthesis)", "format": "cell-based, human", "experimental": "EdU incorporation assay was performed using an EdU proliferative kit (iFluor 488) according to manufacturer's instructions. Briefly, 2.5×10^4 HaCaT cells per well were seeded in a 96-well plate. […] Cells were then fixed, permeabilized, and incubated in a reaction mix containing iFluor 488 for 30 min. The nuclei were stained using DAPI. The plates were visualized using a fluorescence microscope."}, "[2]": {"system": "HaCaT cells", "test": "Cell migration scratch assay", "format": "cell-based, human", "details": "data not shown", "experimental": "Cell migration was monitored using the scratch assay. Briefly, HaCaT cells were seeded into 2 well silicone inserts with a defined gap of 500 μm (ibidi, Germany). […] After incubation for 8 h, the wells were photographed using inverted phase-contrast microscope. Images were analyzed for the percentage of cell-free area using the Wimasis image analysis platform."}, "[3]": {"system": "newborn ICR mice", "test": "Newborn mice model for incisor eruption", "format": "in vivo, mouse", "details": "3 mg/kg subcutaneous, five consecutive days; saline control 153 h", "experimental": "ICR mice were obtained from Vital Rital Laboratories (Beijing, China). […] All experiments were approved and performed in accordance with the institutional guidelines of the Experimental Animal Center of the Chinese Academy of Medical Science (Beijing, China). Subcutaneous injections were made for five consecutive days in the nape of the neck of the newborn mice starting from the day of birth (day 0). […] Incisor eruption was recorded daily by visual inspection. Incisor eruption was defined as the time at which a given tooth first pierced the oral epithelium."}, "[4]": {"system": "C57BL/6 mice", "test": "Full-thickness splinted excisional wound healing in C57BL/6 mice", "format": "in vivo, mouse", "details": "topical, three consecutive days; bleogen pB1 10 nmol/wound, EGF 1 nmol/wound; vs saline", "experimental": "C57BL/6 mice were obtained from Vital Rital Laboratories (Beijing, China). […] All experiments were approved and performed in accordance with the institutional guidelines of the Experimental Animal Center of the Chinese Academy of Medical Science (Beijing, China).\n(§1) Full-thickness 5-mm splinted excisional wounding of mice was performed. Briefly, mice were anesthetized using an intraperitoneal injection of sodium pentobarbital (50 mg kg^−1). The hair of the back was shaved with an electric clipper followed by a depilatory cream. Using a 5-mm-diameter sterile biopsy punch, symmetrical full-thickness excisional wounds were created. Splints were placed around the wound using adhesive glue and secured with four interrupted sutures. The wounds and splints were covered with Tegaderm (3M, US). At indicated days within the 14 days post-injury course, wound diameters were measured. The size of wound was calculated from the average of two diameter measurements along the x and y axis.\nFull-thickness 5 mm splinted excisional wounding of mice was performed on C57BL/6 mice as described above."}, "[5]": {"system": "STZ-induced diabetic C57BL/6 mice", "test": "Full-thickness splinted excisional wound healing in streptozotocin-induced diabetic C57BL/6 mice", "format": "in vivo, mouse", "details": "1 nmol/wound topical, five consecutive days", "experimental": "as §1\nDiabetes was induced into C57BL/6 mice by two intraperitoneal injection (80 mg/kg) of STZ at day 1 and 5. Starting from day 8, blood glucose was monitored regularly for two weeks. […] Blood glucose was also monitored at day 14 post-injury to ensure the mice are diabetic."}, "[6]": {"system": "c-fos", "test": "Gene expression analysis (qPCR) of c-fos in HaCaT cells", "format": "cell-based, human", "details": "2 h treatment", "experimental": "Total RNA was extracted from HaCaT and primary human keratinocytes using PureLink™ RNA mini kit (Thermo Fisher Scientific, US). First-strand cDNA was synthesised from 600 ng of total RNA using SuperScript™ II Reverse Transcriptase and Oligo(dT)12-18 (Thermo Fisher Scientific, US) according to the manufacturer's instructions. Quantitative PCR (qPCR) was performed with iTaq Universal SYBR Green Supermix (Bio-Rad, US) on a CFX96 Touch Real-Time PCR Detection System (Bio-Rad, US) for 40 cycles. PCR reaction (20 μL): 3 μL cDNA, 1 μL primer mix (10 μM), 6 μL DEPC-treated water and 10 μL mastermix. […] GAPDH was used as a housekeeping gene for normalization. Fold changes of gene expressions with c-fos and c-Jun were calculated using the 2^−ΔΔCT method."}, "[7]": {"target": "EGFR (Homo sapiens, UniProt P00533)", "sequence (P00533 25-645 limits assumed)": "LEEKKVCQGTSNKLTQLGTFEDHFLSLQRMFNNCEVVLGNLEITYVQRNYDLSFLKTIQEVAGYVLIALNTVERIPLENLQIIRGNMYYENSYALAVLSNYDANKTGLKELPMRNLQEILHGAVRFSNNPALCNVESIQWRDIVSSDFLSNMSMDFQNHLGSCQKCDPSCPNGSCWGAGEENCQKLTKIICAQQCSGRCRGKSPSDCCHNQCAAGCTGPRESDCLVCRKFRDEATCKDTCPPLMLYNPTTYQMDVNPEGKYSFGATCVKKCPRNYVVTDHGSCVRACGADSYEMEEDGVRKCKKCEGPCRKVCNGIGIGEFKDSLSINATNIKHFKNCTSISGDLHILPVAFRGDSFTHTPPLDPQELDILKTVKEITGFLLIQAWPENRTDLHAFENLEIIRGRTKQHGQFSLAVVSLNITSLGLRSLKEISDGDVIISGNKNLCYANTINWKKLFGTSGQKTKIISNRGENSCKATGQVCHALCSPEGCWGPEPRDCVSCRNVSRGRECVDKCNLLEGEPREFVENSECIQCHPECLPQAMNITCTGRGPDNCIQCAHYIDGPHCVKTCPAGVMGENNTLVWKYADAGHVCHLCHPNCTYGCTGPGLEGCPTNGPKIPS", "test": "TR-FRET EGFR ligand binding assay (competitive displacement of biotin-EGF)", "design": "purchased PerkinElmer", "experimental": "TR-FRET ratio was measured using a microplate reader in dual emission mode (Excitation: 340 nm, emission: 665 nm and 615 nm) (Cytation 1, US). […] (SEQ ID NO:11) or roseltide rT7 with an amino acid sequence of […] (SEQ ID NO:17) were used as negative control."}, "[8]": {"test": "Human serum stability", "details": "25% human serum", "method": "The test samples were incubated at 37° C. Samples were collected at various time points. The collected samples were subjected to protein precipitation with 100% ethanol and centrifugation at 180,000 g for 5 min at 4° C. The supernatant was collected for analysis.\nAll collected samples from various stability assays were analyzed by RP-HPLC with a linear gradient of mobile phase A (0.05% TFA/H2O) and mobile phase B (0.05% TFA/ACN) on aeris peptide XB-C18 column (Phenomenex, US). The resulting peaks were collected and identified by MALDI-TOF MS. The results were expressed as percentage of initial concentration using the peak area of the HPLC profile."}}}
{"molecule": "CC[C@H](C)[C@@H]1NC(=O)[C@H](CCC(=O)O)NC(=O)[C@H]([C@@H](C)O)NC(=O)[C@@H]2CSSC[C@@H]3NC(=O)[C@H](Cc4ccccc4)NC(=O)[C@H](CC(N)=O)NC(=O)[C@H](CO)NC(=O)[C@H](CSSC[C@H](NC(=O)[C@@H](N)CCC(N)=O)C(=O)N[C@@H](CCCCN)C(=O)N4CCC[C@H]4C(=O)N[C@@H](CC(N)=O)C(=O)NCC(=O)N[C@@H](C)C(=O)N[C@@H](CCCCN)C(=O)N2)NC(=O)[C@H](CSSC[C@@H](C(=O)N[C@@H](C)C(=O)N[C@@H](CC(N)=O)C(=O)N[C@@H](CCCNC(=N)N)C(=O)O)NC(=O)[C@H]([C@@H](C)O)NC(=O)CNC(=O)[C@H](CO)NC(=O)[C@H](CCCCN)NC(=O)[C@H](CCC(N)=O)NC(=O)CNC(=O)[C@H](C)NC(=O)[C@H](Cc2ccc(O)cc2)NC(=O)[C@H](CCCNC(=N)N)NC(=O)[C@H](CC(C)C)NC3=O)NC(=O)[C@@H]2CCCN2C(=O)[C@@H]2CCCN2C(=O)[C@H]([C@@H](C)CC)NC(=O)[C@H](CO)NC1=O", "note": "[bleogen pB1]", "values": [{"measurement": "DNA synthesis of HaCaT cells (EdU incorporation)", "setting": "[1]", "value": "enhances DNA synthesis"}, {"measurement": "HaCaT cell migration", "setting": "[2]", "value": "accelerate"}, {"measurement": "time of incisor eruption in newborn mice", "setting": "[3]", "value": 125, "unit": "h"}, {"measurement": "wound healing, full-thickness excision wound model in C57 mice", "setting": "[4]", "value": "accelerated wound healing from day 3 to day 11"}, {"measurement": "wound healing rate vs vehicle control in STZ-induced diabetic mice", "setting": "[5]", "value": "healed at a significantly faster rate starting from day 4 post-injury"}, {"measurement": "mRNA expression of c-fos", "setting": "[6]", "value": "significantly upregulate"}, {"measurement": "IC50", "setting": "[7]", "value": "1.72 ± 7.5e-05", "unit": "µM"}, {"measurement": "potency relative to EGF in receptor displacement (fold less potent)", "setting": "[7]", "value": "50-100 fold"}, {"measurement": "half-life at 0.1 M", "setting": "[8]", "value": "> 33.3", "unit": "days"}]}
